A word on the IC50: it is the concentration needed to halve the response being measured.

In one test the target is αvβ6 (Homo sapiens, UniProt P06756+P18564). The experiment in a line: αv integrin binding assay, αVβ6-LAP-TGF β1 interaction (integrin coupled beads, flow cytometry). The conditions noted are these: ligand LAP-TGF β1 (LAP1) 10 nM; integrin 10 nM. On the procedure:
(§1) αVβ6/αVβ8—LAP-TGF β1 Binding Assay
(§2) Integrins αVβ6/αVβ8 coupled beads are treated with an αVβ6/αVβ8 ligand (e.g., LAP TGF-β1 (LAP1)), and the complex is incubated with a primary antibody (Ab), which can be labeled for detection (e.g., fluorescently labeled), and optionally with a secondary antibody, which can be labeled for detection (e.g., fluorescently labeled). Reaction between integrin coupled beads and the ligand was considered as the full reaction, and reaction without the ligand or a compound of the disclosure was considered as the blank reaction. The complex is analyzed, e.g., by either plate reader or Flow Cytometer, to determine modulation of binding between αVβ6/αVβ8 and the ligand (e.g., LAP-TGF Pβ1) by the compounds of the present application. […]
(§3) The integrin coupled Dyna beads were allowed to interact with respective ligands. The integrin-ligand complex was detected with either Primary/Secondary Antibody conjugated with Fluorescein Isothiocyanate (FITC). […] Fluorescence was measured by Flow Cytometry analysis.
(§4) αVβ6/αVβ8—LAP-TGF β1 interaction: αVβ6/αVβ8 coupled beads were treated with the ligand LAP TGF-β1 (LAP1) at room temperature for 3 hours. […] The complex was analyzed by either plate reader or Flow Cytometer. […]
(§5) Quantification: The samples were acquired using a BD FACSCalibur system and analyzed with BD Cell quest pro Version 6. […]

A further test concerns the target αvβ8 (Homo sapiens, UniProt P06756+P26012). Nature of the test: αv integrin binding assay, αVβ8-LAP-TGF β1 interaction (integrin coupled beads, flow cytometry). On the procedure: as §1, §2, §3, §4, §5

Chain of αvβ8 (P06756 31-992 limits assumed): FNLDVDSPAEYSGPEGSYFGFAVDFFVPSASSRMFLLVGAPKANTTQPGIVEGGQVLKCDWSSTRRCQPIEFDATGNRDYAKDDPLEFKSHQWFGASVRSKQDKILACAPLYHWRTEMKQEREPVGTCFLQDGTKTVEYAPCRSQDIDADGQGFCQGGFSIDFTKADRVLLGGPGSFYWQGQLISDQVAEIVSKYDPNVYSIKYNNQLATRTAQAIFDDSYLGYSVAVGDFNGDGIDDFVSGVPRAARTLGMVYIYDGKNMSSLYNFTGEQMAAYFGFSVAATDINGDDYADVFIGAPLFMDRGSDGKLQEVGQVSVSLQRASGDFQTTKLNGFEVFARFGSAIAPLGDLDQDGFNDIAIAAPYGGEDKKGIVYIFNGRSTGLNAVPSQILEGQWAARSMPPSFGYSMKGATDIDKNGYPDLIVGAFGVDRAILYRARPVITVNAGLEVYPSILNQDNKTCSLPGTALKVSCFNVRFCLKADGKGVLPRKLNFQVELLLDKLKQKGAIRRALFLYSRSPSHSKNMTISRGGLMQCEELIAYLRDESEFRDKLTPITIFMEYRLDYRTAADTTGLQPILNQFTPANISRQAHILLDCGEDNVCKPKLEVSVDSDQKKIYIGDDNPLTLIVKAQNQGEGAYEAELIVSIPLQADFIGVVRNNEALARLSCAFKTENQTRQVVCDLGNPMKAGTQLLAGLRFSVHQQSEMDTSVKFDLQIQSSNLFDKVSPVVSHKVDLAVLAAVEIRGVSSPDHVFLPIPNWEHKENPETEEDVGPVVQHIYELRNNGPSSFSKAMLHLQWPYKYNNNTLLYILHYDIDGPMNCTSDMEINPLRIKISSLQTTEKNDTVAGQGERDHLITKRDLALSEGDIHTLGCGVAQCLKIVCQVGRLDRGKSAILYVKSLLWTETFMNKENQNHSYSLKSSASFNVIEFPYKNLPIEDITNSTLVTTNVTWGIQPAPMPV
Chain of αvβ8 (P26012 43-684 limits assumed): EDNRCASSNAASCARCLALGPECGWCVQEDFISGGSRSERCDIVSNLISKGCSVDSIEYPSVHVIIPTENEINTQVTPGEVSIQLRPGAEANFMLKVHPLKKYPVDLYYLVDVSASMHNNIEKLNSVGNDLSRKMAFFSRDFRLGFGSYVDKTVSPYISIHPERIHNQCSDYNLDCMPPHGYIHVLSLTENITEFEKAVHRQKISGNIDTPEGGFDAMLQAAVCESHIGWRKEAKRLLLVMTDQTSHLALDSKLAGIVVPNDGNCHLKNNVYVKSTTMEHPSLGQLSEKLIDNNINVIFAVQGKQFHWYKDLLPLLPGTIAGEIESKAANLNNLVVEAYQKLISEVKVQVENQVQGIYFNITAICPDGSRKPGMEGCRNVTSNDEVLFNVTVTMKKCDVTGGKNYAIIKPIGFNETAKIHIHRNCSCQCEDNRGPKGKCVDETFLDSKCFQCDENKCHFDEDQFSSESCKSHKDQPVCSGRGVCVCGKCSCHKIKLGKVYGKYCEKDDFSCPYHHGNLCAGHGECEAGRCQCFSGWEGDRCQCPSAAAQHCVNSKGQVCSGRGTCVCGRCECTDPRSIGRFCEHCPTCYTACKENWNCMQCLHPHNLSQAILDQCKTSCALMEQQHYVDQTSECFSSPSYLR
Chain of αvβ6 (P06756 31-992 limits assumed): as the sequence (P06756 31-992 limits assumed) above
Chain of αvβ6 (P18564 22-707 limits assumed): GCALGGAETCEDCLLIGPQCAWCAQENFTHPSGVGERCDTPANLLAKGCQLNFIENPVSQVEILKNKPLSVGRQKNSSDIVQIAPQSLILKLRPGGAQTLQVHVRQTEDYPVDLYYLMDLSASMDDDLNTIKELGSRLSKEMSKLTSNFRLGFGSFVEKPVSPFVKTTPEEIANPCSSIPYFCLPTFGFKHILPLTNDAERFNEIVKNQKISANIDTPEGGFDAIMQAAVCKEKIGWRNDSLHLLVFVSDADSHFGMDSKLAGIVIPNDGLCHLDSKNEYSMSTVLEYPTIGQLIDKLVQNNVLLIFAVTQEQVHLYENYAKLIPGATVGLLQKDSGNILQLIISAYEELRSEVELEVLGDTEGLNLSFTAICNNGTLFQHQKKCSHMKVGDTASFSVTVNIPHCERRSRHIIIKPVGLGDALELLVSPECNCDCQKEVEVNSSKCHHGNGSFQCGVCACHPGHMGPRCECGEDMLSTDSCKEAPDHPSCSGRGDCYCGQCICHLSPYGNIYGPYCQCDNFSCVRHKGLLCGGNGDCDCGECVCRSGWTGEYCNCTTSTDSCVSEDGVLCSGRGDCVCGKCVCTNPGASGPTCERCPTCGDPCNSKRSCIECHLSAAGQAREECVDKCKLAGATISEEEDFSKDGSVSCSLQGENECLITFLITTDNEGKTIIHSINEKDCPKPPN

Take `COc1ccc([C@H](CC(=O)O)N2CCN(CCCc3ccc4c(n3)NCCC4)C2=O)cn1` [A1, (S)-3-(6-methoxypyridin-3-yl)-3-(2-oxo-3-(3-(5,6,7,8-tetrahydro-1,8-naphthyridin-2-yl)propyl)imidazolidin-1-yl)propanoic acid]: the IC50 on αvβ6 worked out at 9.57 nM; at αvβ8 (ligand LAP-TGF β1 (LAP1) 20 nM, integrin 10 nM), 17.6 nM. Also, on αvβ8 (ratio of αvβ8 IC50 to αvβ6 IC50), the αvβ8/αvβ6 was 1.83.

For the origin of these results see patent publication US9572801B2, “Tetrahydronaphthyridinyl propionic acid derivatives and uses thereof” (SciFluor Life Sciences, Inc., priority 2015, dated 2017).
